Test [1] deals with T1, PE-labeled human PD-L1-Ig binding to Jurkat cell line over-expressing human PD-1 (Jurkat-PD-1) (Homo sapiens, UniProt Q15116).
T1 construct: expressed in transfected cells; host or cells: Jurkat
In words: Jurkat-PD-1 Cell Binding High-Content Screening Assay (CBA): Method 1. The settings on record: Jurkat-PD-1 cells, PE-labeled PD-L1-Ig; μM; read-out: CBA Method 1 μM.

The target in test [2] is T1, PE-labeled human PD-L1-Ig binding to Jurkat cell line over-expressing human PD-1 (Jurkat-PD-1). In words: Jurkat-PD-1 Cell Binding High-Content Screening Assay (CBA): Method 2 (presence and absence of tween-20). As to conditions: Jurkat-PD-1 cells, PE-labeled PD-L1-Ig 20 nM; presence or absence of tween-20 not given; head μM; read-out: CBA Method 2 μM. On the procedure:
Jurkat-PD-1 Cell Binding High-Content Screening Assay (CBA): Method 2
Phycoerythrin (PE) was covalently linked to the Ig epitope tag of human PD-L1-Ig and fluorescently labeled PD-L1-Ig was used for binding studies with a Jurkat cell line over-expressing human PD-1 (Jurkat-PD-1). […] 100 nl of compound was added to cells followed by incubation at 37° C. for 2 hours. To interrogate potential issues with compound aggregation, compounds were tested in the presence and absence of tween-20 detergent. […] Then, 5 μl of PE-labeled PD-L1-Ig (20 nM final), diluted in DMEM supplemented with 10% fetal calf serum. […] Data was collected and processed using a Cell Insight NXT High Content Imager and associated software.

Molecules are shown by their SMILES. Bridge positions count the residues as written; N and C are the ends. Square brackets hold non-standard residues; d marks the D form. Peptide text beside a SMILES is read from it. * marks the point of attachment. Bip(4'-NHAc) = CC(=O)Nc1ccc(-c2ccc(C[C@H](N)C(=O)O)cc2)cc1; Phe(3-CF3) = N[C@@H](Cc1cccc(C(F)(F)F)c1)C(=O)O; Ala(morpholin-4-yl) = N[C@@H](CN1CCOCC1)C(=O)O; Phe(4-CONH2) = NC(=O)c1ccc(C[C@H](N)C(=O)O)cc1; Phe(4-COOH) = N[C@@H](Cc1ccc(C(=O)O)cc1)C(=O)O; Phe(2,4-Cl2) = N[C@@H](Cc1ccc(Cl)cc1Cl)C(=O)O; Bip = N[C@@H](Cc1ccc(-c2ccccc2)cc1)C(=O)O; Phe(3-Me) = Cc1cccc(C[C@H](N)C(=O)O)c1; Abu(3S-NH2) = C[C@H](N)[C@H](N)C(=O)O; Val(3-OH) = CC(C)(O)[C@H](N)C(=O)O; 2Pal = N[C@@H](Cc1ccccn1)C(=O)O; Cha = N[C@@H](CC1CCCCC1)C(=O)O; Carboxymethyl = O=C(O)C*; NMeA = CN[C@@H](C)C(=O)O; Nle = CCCC[C@H](N)C(=O)O; Orn = NCCC[C@H](N)C(=O)O; Dab = NCC[C@H](N)C(=O)O

T1 sequence (Q15116 25-288): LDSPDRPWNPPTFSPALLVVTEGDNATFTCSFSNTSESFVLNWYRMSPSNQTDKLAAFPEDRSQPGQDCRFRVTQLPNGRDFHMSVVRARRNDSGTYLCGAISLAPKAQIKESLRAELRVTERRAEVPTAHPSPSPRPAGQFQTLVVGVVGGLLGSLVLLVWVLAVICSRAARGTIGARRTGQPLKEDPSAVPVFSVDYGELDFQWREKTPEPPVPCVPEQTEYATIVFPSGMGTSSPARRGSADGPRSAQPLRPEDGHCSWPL

With `Cc1cccc(C[C@@H]2NC(=O)[C@H](CC(=O)O)NC(=O)[C@H](Cc3ccc(OCC(=O)O)cc3)NC(=O)[C@H](CN3CCOCC3)NC(=O)CSC[C@@H](C(=O)N[C@@H](CCN)C(N)=O)NC(=O)[C@H](CCCN)NC(=O)[C@H](C(C)C)NC(=O)[C@H](Cc3ccc(Cl)cc3Cl)NC(=O)[C@H](CCN)NC(=O)[C@@H](CC(C)C)NC(=O)[C@H](C)N(C)C(=O)[C@H](CCC(N)=O)NC(=O)[C@H](Cc3ccc(-c4ccccc4)cc3)NC(=O)[C@H](Cc3ccc(C(=O)O)cc3)NC2=O)c1` [Example 5041] ({CH2CO}-[Ala(morpholin-4-yl)]Y(Carboxymethyl)D[Phe(3-Me)][Phe(4-COOH)][Bip]Q[NMeA][dL][Dab][Phe(2,4-Cl2)]V[Orn]C[Dab]-NH2; thioether N-14), the values for the IC50 in test [1] and in test [2] were 0.0888 µM and 0.0822 µM, respectively.

`Cc1cccc(C[C@@H]2NC(=O)[C@H](CC(=O)O)NC(=O)[C@H](Cc3ccc(OCC(=O)O)cc3)NC(=O)[C@H](CN3CCOCC3)NC(=O)CSC[C@@H](C(=O)N[C@@H](CCN)C(N)=O)NC(=O)[C@H](CCCN)NC(=O)[C@H](C(C)C)NC(=O)[C@H](Cc3ccccn3)NC(=O)[C@H](CCN)NC(=O)[C@@H](CC(C)C)NC(=O)[C@H](C)N(C)C(=O)[C@H](CCC(N)=O)NC(=O)[C@H](Cc3ccc(-c4ccccc4)cc3)NC(=O)[C@H](Cc3ccc(C(=O)O)cc3)NC2=O)c1` [Example 5038] ({CH2CO}-[Ala(morpholin-4-yl)]Y(Carboxymethyl)D[Phe(3-Me)][Phe(4-COOH)][Bip]Q[NMeA][dL][Dab][2Pal]V[Orn]C[Dab]-NH2; thioether N-14): the IC50 in test [1] was 0.0425 µM; in test [2], 0.0171 µM.

Turning to `CC(=O)Nc1ccc(-c2ccc(C[C@@H]3NC(=O)[C@H](Cc4cccc(C(F)(F)F)c4)NC(=O)[C@H](CC(=O)O)NC(=O)[C@H](Cc4ccc(C(=O)O)cc4)NC(=O)[C@H](CN4CCOCC4)NC(=O)CSC[C@@H](C(=O)N[C@@H](CCN)C(N)=O)NC(=O)[C@H](CCCN)NC(=O)[C@H](C(C)C)NC(=O)[C@H](CC4CCCCC4)NC(=O)[C@H](CCN)NC(=O)[C@@H](CC(C)C)NC(=O)[C@H](C)N(C)C(=O)[C@H](CCC(N)=O)NC(=O)[C@H](Cc4ccc(-c5ccccc5)cc4)NC3=O)cc2)cc1` [Example 5047] ({CH2CO}-[Ala(morpholin-4-yl)][Phe(4-COOH)]D[Phe(3-CF3)][Bip(4'-NHAc)][Bip]Q[NMeA][dL][Dab][Cha]V[Orn]C[Dab]-NH2; thioether N-14), the IC50 in test [1] stood at 0.0052 µM; in test [2], 0.0041 µM.

For `Cc1cccc(C[C@@H]2NC(=O)[C@H](CC(=O)O)NC(=O)[C@H](Cc3ccc(OCC(=O)O)cc3)NC(=O)[C@H](CN3CCOCC3)NC(=O)CSC[C@@H](C(=O)N[C@@H](CCN)C(N)=O)NC(=O)[C@H](CCCN)NC(=O)[C@H](C(C)C)NC(=O)[C@H](CC3CCCCC3)NC(=O)[C@H](CCN)NC(=O)[C@@H](CC(C)C)NC(=O)[C@H](C)N(C)C(=O)[C@H](Cc3ccc(C(=O)O)cc3)NC(=O)[C@H](Cc3ccc(-c4ccccc4)cc3)NC(=O)[C@H](Cc3ccc(C(=O)O)cc3)NC2=O)c1` [Example 5045] ({CH2CO}-[Ala(morpholin-4-yl)]Y(Carboxymethyl)D[Phe(3-Me)][Phe(4-COOH)][Bip][Phe(4-COOH)][NMeA][dL][Dab][Cha]V[Orn]C[Dab]-NH2; thioether N-14), the IC50 worked out at 0.0016 µM in test [1] and 0.0014 µM in test [2].

As to `CC(=O)Nc1ccc(-c2ccc(C[C@@H]3NC(=O)[C@H](Cc4cccc(C)c4)NC(=O)[C@H](CC(=O)O)NC(=O)[C@H](Cc4ccc(C(=O)O)cc4)NC(=O)[C@H](CC(C)C)NC(=O)CSC[C@@H](C(=O)N[C@@H](CCN)C(N)=O)NC(=O)[C@H](CCCN)NC(=O)[C@H](C(C)C)NC(=O)[C@H](CC4CCCCC4)NC(=O)[C@H](CCN)NC(=O)[C@@H](CC(C)C)NC(=O)[C@H](C)N(C)C(=O)[C@H](CCC(N)=O)NC(=O)[C@H](Cc4ccc(-c5ccccc5)cc4)NC3=O)cc2)cc1` [Example 5054] ({CH2CO}-L[Phe(4-COOH)]D[Phe(3-Me)][Bip(4'-NHAc)][Bip]Q[NMeA][dL][Dab][Cha]V[Orn]C[Dab]-NH2; thioether N-14), the IC50 in test [1] was 0.0053 µM; in test [2] it was 0.0057 µM.

With `CCCC[C@@H]1NC(=O)CSC[C@@H](C(=O)N[C@@H](CCN)C(N)=O)NC(=O)[C@H](CO)NC(=O)[C@H](C(C)(C)O)NC(=O)[C@H](CC2CCCCC2)NC(=O)[C@H](CCN)NC(=O)[C@@H](CC(C)C)NC(=O)[C@H](C)N(C)C(=O)[C@H](Cc2ccc(C(N)=O)cc2)NC(=O)[C@H](Cc2ccc(-c3ccccc3)cc2)NC(=O)[C@H](Cc2ccc(-c3ccc(NC(C)=O)cc3)cc2)NC(=O)[C@H](Cc2cccc(C)c2)NC(=O)[C@H](CC(=O)O)NC(=O)[C@H](Cc2ccc(OCC(=O)O)cc2)NC1=O` [Example 5069] ({CH2CO}-[Nle]Y(Carboxymethyl)D[Phe(3-Me)][Bip(4'-NHAc)][Bip][Phe(4-CONH2)][NMeA][dL][Dab][Cha][Val(3-OH)]SC[Dab]-NH2; thioether N-14), the IC50 in test [1] is 0.0136 µM; in test [2] it was 0.0131 µM.

For `CC(=O)Nc1ccc(-c2ccc(C[C@@H]3NC(=O)[C@H](Cc4cccc(C)c4)NC(=O)[C@H](CC(=O)O)NC(=O)[C@H](Cc4ccc(C(=O)O)cc4)NC(=O)[C@H]([C@H](C)N)NC(=O)CSC[C@@H](C(=O)N[C@@H](CCN)C(N)=O)NC(=O)[C@H](CCCN)NC(=O)[C@H](C(C)C)NC(=O)[C@H](CC4CCCCC4)NC(=O)[C@H](CCN)NC(=O)[C@@H](CC(C)C)NC(=O)[C@H](C)N(C)C(=O)[C@H](CCC(N)=O)NC(=O)[C@H](Cc4ccc(-c5ccccc5)cc4)NC3=O)cc2)cc1` [Example 5051] ({CH2CO}-[Abu(3S-NH2)][Phe(4-COOH)]D[Phe(3-Me)][Bip(4'-NHAc)][Bip]Q[NMeA][dL][Dab][Cha]V[Orn]C[Dab]-NH2; thioether N-14), the IC50 worked out at 0.0032 µM in test [1] and 0.0021 µM in test [2].

As for `Cc1cccc(C[C@@H]2NC(=O)[C@H](CC(=O)O)NC(=O)[C@H](Cc3ccc(OCC(=O)O)cc3)NC(=O)[C@H](CCN)NC(=O)CSC[C@@H](C(=O)N[C@@H](CCN)C(N)=O)NC(=O)[C@H](CCC(N)=O)NC(=O)[C@H](C(C)C)NC(=O)[C@H](CC3CCCCC3)NC(=O)[C@H](CCN)NC(=O)[C@@H](CC(C)C)NC(=O)[C@H](C)N(C)C(=O)[C@H](Cc3ccc(C(N)=O)cc3)NC(=O)[C@H](Cc3ccc(-c4ccccc4)cc3)NC(=O)[C@H](Cc3ccc(OCC(=O)O)cc3)NC2=O)c1` [Example 5068] ({CH2CO}-[Dab]Y(Carboxymethyl)D[Phe(3-Me)]Y(Carboxymethyl)[Bip][Phe(4-CONH2)][NMeA][dL][Dab][Cha]VQC[Dab]-NH2; thioether N-14), the results for the IC50 in test [1] and in test [2] were 0.0172 µM and 0.0106 µM, respectively.

With `CC(=O)Nc1ccc(-c2ccc(C[C@@H]3NC(=O)[C@H](Cc4cccc(C(F)(F)F)c4)NC(=O)[C@H](CC(=O)O)NC(=O)[C@H](Cc4ccc(C(=O)O)cc4)NC(=O)[C@H]([C@H](C)N)NC(=O)CSC[C@@H](C(=O)N[C@@H](CCN)C(N)=O)NC(=O)[C@H](CCC(N)=O)NC(=O)[C@H](C(C)C)NC(=O)[C@H](CC4CCCCC4)NC(=O)[C@H](CCN)NC(=O)[C@@H](CC(C)C)NC(=O)[C@H](C)N(C)C(=O)[C@H](Cc4ccc(C(N)=O)cc4)NC(=O)[C@H](Cc4ccc(-c5ccccc5)cc4)NC3=O)cc2)cc1` [Example 5073] ({CH2CO}-[Abu(3S-NH2)][Phe(4-COOH)]D[Phe(3-CF3)][Bip(4'-NHAc)][Bip][Phe(4-CONH2)][NMeA][dL][Dab][Cha]VQC[Dab]-NH2; thioether N-14), the values for the IC50 in test [1] and in test [2] were 0.0059 µM and 0.005 µM, respectively.

These data come from US20240409585A1, “MACROCYCLIC IMMUNOMODULATORS” (priority 2021, published 2024).
